Measurements: PMC7159882, “Polyunsaturated fatty acid analogues differentially affect cardiac NaV, CaV, and KV channels through unique mechanisms” (eLife, 2020)

Target: T1, Kv7.1/KCNE1 (Homo sapiens, UniProt P51787)
T1 construct: cRNA encoding Kv7.1 (UniProt: P51787), KCNE1 (UniProt: P15382.1); expressed in transfected cells; host or cells: Xenopus laevis oocytes (cRNA injection, Kv7.1:KCNE1 3:1 by weight)
Test: Two-electrode voltage clamp of Kv7.1/KCNE1 expressed in Xenopus oocytes
Assay type: cell-based
Parameters: Fitted slope factor of conductance vs voltage relationship: unit of the concentration uncertain
Details: for IKs I/I0: relative current at 0 mV
Procedure: Molecular Biology cRNA encoding Kv7.1 (UniProt: P51787), KCNE1 (UniProt: P15382.1), Nav1.5 (UniProt: Q14524.1), Nav β1 (UniProt: […]), Nav β3 (UniProt: […]), Cav1.2 (GenBank: CAA84346), Cav β3 (Uniprot: P54286), Cav β2 (Uniprot: P54288), and Cav α2δ (Uniprot: P13806) were transcribed using the mMessage mMachine T7 kit (Ambion). 50 ng of cRNA was injected into defolliculated Xenopus laevis oocytes (Ecocyte, Austin, TX): For Kv7.1/KCNE1 channel expression, we injected a 3:1, weight:weight (Kv7.1:KCNE1) cRNA ratio. For Nav1.5 channel expression, we injected a 2:1, weight:weight (Nav1.5:β1) cRNA ratio. For Cav1.2 channel expression, we injected a 2:1:1, weight:weight (Cav1.2:β3:α2δ) cRNA ratio. The exact stoichiometry for channel macromolecular complexes, including α -subunits and auxiliary subunits is not clear for many ion channels. For example, there have been multiple reported stoichiometries for Kv7.1:KCNE1 determined in heterologous expression systems with some groups reporting flexible stoichiometry of 4 Kv7.1: 1–4 KCNE1 and others reporting a fixed stoichiometry of 4 Kv7.1: 2 KCNE1 ([Murray et al., 2016]; [Nakajo et al., 2010]). The ratios of cRNA of α- and auxiliary subunits that we injected in Xenopus laevis oocytes are such that all α-subunits are assumed to be in complex with auxiliary subunits. This allows a more homogenous population of ion channels with auxiliary subunits. One caveat to expressing ion channels as macromolecular complexes is that there are many other auxiliary subunits that could associate with the channel α -subunit that are present in cardiomyocytes and have the potential to alter PUFA-induced effects, but that are not being co-expressed in our experiments. In this work, we are co-expressing some of the auxiliary subunits that have been primarily reported to associate with their respective α -subunits in cardiomyocytes. Following cRNA injection, cells were incubated for 72–96 hr in standard ND96 solution (96 mM NaCl, 2 mM KCl, 1 mM MgCl2, 1.8 mM CaCl2, 5 mM HEPES; pH = 7.5) containing 1 mM pyruvate at 16°C prior to electrophysiological recordings.
Xenopus laevis oocytes were recorded in the two-electrode voltage clamp (TEVC) configuration. Recording pipettes were filled with 3 M KCl. The recording chamber was filled with ND96 (96 mM NaCl, 2 mM KCl, 1 mM MgCl2, 1.8 mM CaCl2, 5 mM HEPES; pH 7.5). For Cav1.2/β3/α2δ channel recordings, Xenopus oocytes were injected with 50 nl of 100 mM EGTA and incubated at 10°C for 30 min prior to electrophysiological recordings in order to sequester cytosolic calcium. In addition, Cav1.2/β3/α2δ channel recordings were done in Ca^2+-free solutions, using Ba^2+ as the charge carrier, to prevent calcium-dependent inactivation of Cav1.2/β3/α2δ channels. Calcium-dependent inactivation was not studied in this work, due to the presence of large calcium-activated chloride currents present in Xenopus laevis oocytes. PUFAs were obtained from Cayman Chemical (Ann Arbor, MI.) or synthesized in house (Linköping, Sweden) through methods previously described ([Bohannon et al., 2020]) and kept at −20 °C as 100 mM stock solutions in ethanol. […] PUFAs were perfused into the recording chamber using the Rainin Dynamax Peristaltic Pump (Model RP-1) (Rainin Instrument Co., Oakland, CA. USA).
Electrophysiological recordings were obtained using Clampex 10.3 software (Axon, pClamp, Molecular Devices). To measure Kv7.1/KCNE1 currents we apply PUFAs as the membrane potential is stepped every 30 s from −80 mV to 0 mV for 5 s before stepping to −40 mV and back to −80 mV to ensure that the PUFA effects on the current at 0 mV reached steady state. A voltage-step protocol was used to measure the current vs. voltage (I-V) relationship before PUFA application and after the PUFA effects had reached steady state for each concentration of PUFA. Cells were held at −80 mV followed by a hyperpolarizing prepulse to −140 mV. […]

Fitted slope factor of conductance vs voltage relationship (0.2 μM) [mV] | Gmax/Gmax0 (0.2 μM) | ΔV0.5 (voltage dependence of activation) (0.2 μM) [mV] | IKs I/I0 (0.2 μM) | Fitted slope factor of conductance vs voltage relationship (0.7 μM) [mV] | Gmax/Gmax0 (0.7 μM) | ΔV0.5 (voltage dependence of activation) (0.7 μM) [mV] | IKs I/I0 (0.7 μM) | Fitted slope factor of conductance vs voltage relationship (2 μM) [mV] | Gmax/Gmax0 (2 μM) | ΔV0.5 (voltage dependence of activation) (2 μM) [mV] | IKs I/I0 (2 μM) | Fitted slope factor of conductance vs voltage relationship (7 μM) [mV] | ΔV0.5 (voltage dependence of activation) (7 μM) | IKs I/I0 (7 μM) | Fitted slope factor of conductance vs voltage relationship (20 μM) [mV] | Gmax/Gmax0 (20 μM) | ΔV0.5 (voltage dependence of activation) (20 μM) [mV] | IKs I/I0 (20 μM) | Gmax/Gmax0 (7 μM) | Structure (SMILES) | further results
17.9 ± 0.82 | 1.2 ± 0.1 | 2.6 ± 2.4 | 1.1 ± 0.1 | 17.7 ± 0.82 | 1.3 ± 0.2 | 2.3 ± 3.5 | 1.4 ± 0.4 | 18.3 ± 0.96 | 2.0 ± 0.4 | -4.9 ± 3.4 | 3.0 ± 0.4 | 18.8 ± 1.0 | −23.8 ± 2.7 mV | 6.8 ± 1.0 (p=0.01) | 16.8 ± 0.73 | 1.9 ± 0.3 | -51.6 ± 3.5 | 9.0 ± 1.4 | – | CCCCC/C=C\C/C=C\CC/C=C\CCCC(=O)NCCS(=O)(=O)O [Pin-taurine] | Gmax/Gmax0 (7 μM, listed as pin-taurine): 2.2 ± 0.4; ΔV0.5 (voltage dependence of activation) (7 μM, listed as pin-taurine): -23.8 ± 2.7 mV; IKs I/I0 (7 μM, listed as pin-taurine): 6.8 ± 1.0
18.2 ± 0.89 | 1.2 ± 0.1 | -2.7 ± 1.5 | 1.2± 0.1 | 19.0 ± 1.0 | 1.3 ± 0.1 | -3.3 ± 3.0 | 1.4 ± 0.1 | 19.2 ± 1.2 | 1.8 ± 0.2 | -10.0 ± 2.8 | 2.5 ± 0.4 | 20.6 ± 1.5 | −23.8 ± 1.6 mV | 5.1 ± 0.4 (p=0.002) | 22.1 ± 1.7 | 2.4 ± 0.2 | -26.4 ± 4.4 | 5.3 ± 0.5 | 2.3 ± 0.2 | CCCCC/C=C\C/C=C\CCCCCCCC(=O)NCC(=O)O [Lin-glycine] | ΔV0.5 (voltage dependence of activation) (7 μM, listed as lin-glycine): -23.8 ± 1.6 mV; IKs I/I0 (7 μM, listed as lin-glycine): 5.1 ± 0.4
16.5 ± 0.49 | 1.3 ± 0.1 | -2.0 ± 0.8 | 1.3 ± 0.1 | 16.6 ± 0.45 | 1.5 ± 0.1 | -3.0 ± 1.0 | 1.7 ± 0.2 | 16.6 ± 0.52 | 1.7 ± 0.2 | -5.8 ± 0.9 | 2.4 ± 0.5 | 17.0 ± 0.56 | −10.5 ± 1.0 mV | – | 17.9 ± 0.68 | 2.0 ± 0.2 | -16.5 ± 1.3 | 5.0 ± 1.3 | 1.9 ± 0.2 | CC/C=C\C/C=C\C/C=C\C/C=C\C/C=C\C/C=C\CCC(=O)NCC(=O)O [DHA-glycine, docosahexaenoyl glycine] | –
16.9 ± 0.65 | 1.0 ± 0.1 | 0.7 ± 0.8 | 1.0 ± 0.02 | 17.2 ± 0.62 | 0.9 ± 0.02 | 0.9 ± 1.1 | 1.0 ± 0.03 | 17.4 ± 0.60 | 0.9 ± 0.02 | 0.6 ± 1.1 | 1.0 ± 0.04 | 18.2 ± 0.59 | –1.8 ± 2.6 mV | – | 18.7 ± 0.73 | 0.9 ± 0.02 | -8.5 ± 4.9 | 1.3 ± 0.2 | 0.9 ± 0.03 | CCCCC/C=C\C/C=C\C/C=C\C/C=C\CCCC(=O)NCCS(=O)(=O)O [N-AT, N-arachidonoyl taurine] | concentrations at which the effects on IKs appear (I/I0 at 0 mV): > 20 µM
17.7 ± 0.76 | 1.0 ± 0.03 | 1.3 ± 0.7 | 1.0 ± 0.1 | 17.7 ± 0.77 | 1.1 ± 0.02 | -0.3 ± 1.4 | 1.2 ± 0.2 | 18.6 ± 1.0 | 1.7 ± 0.4 | -12.3 ± 3.1 | 3.2 ± 0.9 | 18.1 ± 1.0 | −39.9 ± 3.6 mV | 7.7 ± 2.9 (p=0.14) | 12.2 ± 1.8 | 2.0 ± 0.6 | -73.1 ± 2.6 | 10.4 ± 4.0 | 1.9 ± 0.6 | CCCCC/C=C\C/C=C\CCCCCCCC(=O)NCCS(=O)(=O)O [Lin-taurine, Linoleoyl taurine] | ΔV0.5 (voltage dependence of activation) (7 μM, listed as lin-taurine): -39.9 ± 3.6 mV; IKs I/I0 (7 μM, listed as lin-taurine): 7.7 ± 2.9
17.9 ± 0.83 | 1.0 ± 0.1 | 3.9 ± 0.6 | 0.7 ± 0.1 | 17.8 ± 0.84 | 1.2 ± 0.1 | 2.3 ± 0.2 | 1.0 ± 0.1 | 17.9 ± 0.91 | 1.3 ± 0.1 | 2.3 ± 0.7 | 1.1 ± 0.1 | 18.7 ± 1.1 | – | – | 20.9 ± 1.4 | 1.7 ± 0.1 | -19.9 ± 2.4 | 3.6 ± 0.2 | 1.7 ± 0.1 | CCCCC/C=C\C/C=C\CC/C=C\CCCC(=O)NCC(=O)O [Pin-glycine] | ΔV0.5 (voltage dependence of activation) (7 μM, listed as pin-glycine): -8.5 ± 1.7 mV; IKs I/I0 (7 μM, listed as pin-glycine): 2.4 ± 0.2
